The results in this text go back to ChEMBL document CHEMBL1147493, “Small molecule biaryl FSH receptor agonists. Part 2: Lead optimization via parallel synthesis” (Bioorg Med Chem Lett, 2004).

Each structure is given as a SMILES string. Values joined by “and” are separate entries in the source; they are usually repeats but may differ in a detail not shown here. Identical values can stand only once. Bounds are passed on as bounds.

For orientation: EC50 means the midpoint of the concentration-response curve. Lower therefore signals higher potency in that assay.

Assay type in all cases: functional
Test [1] concerns the target T1, Follicle-stimulating hormone receptor (Homo sapiens, UniProt P23945).
T1 sequence (P23945 whole entry): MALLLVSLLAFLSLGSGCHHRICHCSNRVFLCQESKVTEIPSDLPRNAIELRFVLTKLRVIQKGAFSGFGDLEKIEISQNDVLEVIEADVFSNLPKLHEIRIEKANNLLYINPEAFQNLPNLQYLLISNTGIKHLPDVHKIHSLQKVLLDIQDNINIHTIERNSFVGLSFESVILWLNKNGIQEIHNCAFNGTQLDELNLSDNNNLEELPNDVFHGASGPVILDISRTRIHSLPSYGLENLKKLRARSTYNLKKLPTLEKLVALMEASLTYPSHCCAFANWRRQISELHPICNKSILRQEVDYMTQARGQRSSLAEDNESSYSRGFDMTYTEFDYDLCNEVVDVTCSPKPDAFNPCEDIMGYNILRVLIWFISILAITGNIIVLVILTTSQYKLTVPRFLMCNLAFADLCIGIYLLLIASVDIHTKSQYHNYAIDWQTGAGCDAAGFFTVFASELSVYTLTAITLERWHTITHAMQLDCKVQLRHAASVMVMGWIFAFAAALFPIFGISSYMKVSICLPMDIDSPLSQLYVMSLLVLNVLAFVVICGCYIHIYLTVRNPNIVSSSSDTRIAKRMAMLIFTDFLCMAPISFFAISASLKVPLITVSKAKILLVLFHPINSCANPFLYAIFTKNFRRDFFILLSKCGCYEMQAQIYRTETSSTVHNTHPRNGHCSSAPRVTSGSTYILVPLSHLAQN
Kind of test: Agonistic activity against human follicle stimulating hormone receptor in CHO-hFSHR-luciferase assay.

Test [2] deals with T1, Follicle-stimulating hormone receptor. Kind of test: Agonistic activity in CHO-hFSHR cell-based cAMP accumulation assay.
Test [3] deals with T2, Follicle-stimulating hormone receptor (Homo sapiens) (UniProt P23945).
T2 sequence (whole entry): T1 sequence (P23945 whole entry)
In words: Agonistic efficacy in CHO-hFSHR cell-based cAMP accumulation assay relative to FSH(=100%). A general note: Changes in cAMP serve as a functional read-out for many G protein-coupled receptors.

Test [4] has as its target T1, Follicle-stimulating hormone receptor. In words: Agonistic activity in CHO-hFollicle stimulating hormone receptor cell-based cAMP accumulation assay.

In the case of `CCCCCCCCN1C(=O)[C@H](Cc2ccc(-c3cccc(CN(COC)C(=O)NC)c3)cc2)N(C)C(=O)[C@@H]1C`, in test [1], the EC50 came to 3.6 nM.
`CCCCCCNC(=O)CN1CC(=O)N(CCC)[C@@H](Cc2ccc(-c3cc(OC)c(OC)c(OC)c3)cc2)C1=O` came in with an EC50 in test [1] greater than 20000 nM.
As to `CCCCCCCCN1CC(=O)N(C)[C@@H](Cc2ccc(-c3cc(OC)c(OC)c(OC)c3)cc2)C1=O`, the EC50 in test [1] amounted to 400 nM.
In the case of `CCCCCCN1C(=O)[C@H](Cc2ccc(-c3cccc(CN(CCCC)C(=O)OC)c3)cc2)N(C)C(=O)[C@@H]1C`, the EC50 in test [1] was 8.9 nM; in test [2], 48 nM and 59 nM.
With `CCCCCCCCN1C(=O)[C@H](Cc2ccc(-c3cccc(CN(CCCC)C(=O)OC)c3)cc2)N(C)C(=O)[C@@H]1C`, the Efficacy in test [3] worked out at 49%. Moreover, the half-maximal effective concentration (EC50) in test [1] came out at 2.7 nM; in test [2], 31 nM.
As for `CCCCCCCCN1C(=O)[C@H](Cc2ccc(-c3cccc(CN(COC)C(C)=O)c3)cc2)N(C)C(=O)[C@@H]1C`, the EC50 in test [1] was 9.7 nM.
The same measure, in the same setting: to `CCCCCCNC(=O)CN1CC(=O)N(C)[C@@H](Cc2ccc(-c3cc(OC)c(OC)c(OC)c3)cc2)C1=O` belongs 3 nM.
In the case of `CCCCCCN1C(=O)[C@H](Cc2ccc(-c3cccc(CN(CCCC)C(C)=O)c3)cc2)N(C)C(=O)[C@@H]1C`, a half-maximal effect in test [1] (EC50) was put at 150 nM.
For the molecule `CCCCCCCCN1CC(=O)N(C)[C@@H](Cc2ccc(-c3cc(C)c(OC)c(C)c3)cc2)C1=O`, the EC50 in test [1] turned out to be 1200 nM.
On the same count and under the same terms, the same measure for `CCCCCCCN1CC(=O)N(C)[C@@H](Cc2ccc(-c3cc(OC)c(OC)c(OC)c3)cc2)C1=O`: 2300 nM; for `CCCCCN1CC(=O)N(C)[C@@H](Cc2ccc(-c3cc(OC)c(OC)c(OC)c3)cc2)C1=O`: 9000 nM.
In the case of `CCCCCCCCN1C(=O)[C@H](Cc2ccc(-c3cccc(CN(CCCC)C(C)=O)c3)cc2)N(C)C(=O)[C@@H]1C`, in test [3], the Efficacy turned out to be 57%. The EC50 in test [1] stood at 14 nM; in test [2] it was 35 nM.
In turn, `CCCCCCCCN1C(=O)[C@H](Cc2ccc(-c3cccc(CN(COC)C(=O)OC)c3)cc2)N(C)C(=O)[C@@H]1C` displayed an EC50 in test [1] of 1.8 nM.
Still for that read-out and setting: to `CCCCCCNC(=O)CN1CC(=O)N(CC)[C@@H](Cc2ccc(-c3cc(OC)c(OC)c(OC)c3)cc2)C1=O` belongs greater than 20000 nM.
Same read-out and setting: to `CCCCCCCCN1CC(=O)N(C)[C@@H](Cc2ccc(-c3cc(OC)cc(OC)c3)cc2)C1=O` belongs 5000 nM.
`CCCCCCCCCN1CC(=O)N(C)[C@@H](Cc2ccc(-c3cc(OC)c(OC)c(OC)c3)cc2)C1=O` showed an EC50 in test [1] of 900 nM.
In the case of `CCCCCCCCN1C(=O)[C@H](Cc2ccc(-c3cc(OC)c(OC)c(OC)c3)cc2)N(C)C(=O)[C@H]1C`, in test [1], the EC50 turned out to be 120 nM.
Take `CCCCCCCCN1C(=O)[C@H](Cc2ccc(-c3cc(OC)c(OC)c(OC)c3)cc2)N(C)C(=O)[C@@H]1C`: the Efficacy in test [3] came to 47%. The EC50 in test [1] was 13 nM; in test [2] it was 32 nM.
For the molecule `CCCCCCCCN1C(=O)[C@@H](Cc2ccc(-c3cc(OC)c(OC)c(OC)c3)cc2)N(C)C(=O)[C@@H]1C`, the midpoint of the response in test [1], the EC50, lay at 68 nM.
On the same count and under the same terms, to `CCCCCCCCN1C(=O)[C@@H](Cc2ccc(-c3cc(OC)c(OC)c(OC)c3)cc2)N(C)C(=O)[C@H]1C` belongs 1600 nM.
In test [1], `CCCCCNC(=O)CN1CC(=O)N(C)[C@@H](Cc2ccc(-c3cccc(CN(CCCC)C(=O)NC)c3)cc2)C1=O` returned an EC50 of 1.7 nM.
On to `CCCCCCCCN1CC(=O)N(C)[C@@H](Cc2ccc(-c3ccc(OC)c(OC)c3)cc2)C1=O`, for which the EC50 in test [1] amounted to 3300 nM.
On to `CCCCCCNC(=O)CN1CC(=O)N[C@@H](Cc2ccc(-c3cc(OC)c(OC)c(OC)c3)cc2)C1=O`, for which, in test [1], the EC50 was greater than 20000 nM.
`CCCCCCN1C(=O)[C@H](Cc2ccc(-c3cccc(CN(CCCC)C(=O)NC)c3)cc2)N(C)C(=O)[C@@H]1C` displayed an Efficacy in test [3] of 85%. The EC50 in test [1] was 7.2 nM; in test [2], 9.5 nM.
Take `CCCCCCN1CC(=O)N(C)[C@H](Cc2ccc(-c3cc(OC)c(OC)c(OC)c3)cc2)C1=O`: the EC50 in test [1] was greater than 50000 nM.
`CCCCCCN1C(=O)[C@H](Cc2ccc(-c3cc(OC)c(OC)c(OC)c3)cc2)N(C)C(=O)[C@@H]1C` returned a concentration for a half-maximal effect (EC50) in test [1] of 100 nM.
In the case of `CCCCCCN1CC(=O)N(C)[C@@H](Cc2ccc(-c3cc(OC)c(OC)c(OC)c3)cc2)C1=O`, the EC50 in test [1] was 3000 nM.
With `CCCCCCCCN1C(=O)[C@H](Cc2ccc(-c3cccc(CN(CCCC)C(=O)NC)c3)cc2)N(C)C(=O)[C@@H]1C`, in test [3], the Efficacy was determined as 72%. The values for the EC50 in test [1] and in test [2] were 1.2 nM and 7.9 nM, respectively.
Take `CCCCCCCN1C(=O)[C@H](Cc2ccc(-c3cc(OC)c(OC)c(OC)c3)cc2)N(C)C(=O)[C@@H]1C`: the 50% effective concentration (EC50) in test [4] stood at 32 nM; in test [1], 25 nM. The Efficacy in test [3] was determined as 54%.
